Source: patent US11628146B2, “Estrogen receptor ligand treatment for neurodegenerative diseases” (The Regents of the University of California, priority 2014, dated 2023)
“Also recorded” adds a separate entry of the source.

Columns and labels:
[1] = test system: EAE in NOD mice; test: Rotarod testing in EAE, NOD mice; assay type: in vivo, mouse; set-up: key to Rotarod Score: n.s. = not significant; *p < 0.05; ***p = 0.0004; ****p < 0.0001; n.i. = not informative
Procedure: Rotarod Testing. Motor behavior was tested up to two times per week for each mouse using a rotarod apparatus (Med Associates Inc., St. Albans, Vt.). Briefly, animals were placed on a rotating horizontal cylinder for a maximum of 200 seconds. The amount of time the mouse remained walking on the cylinder, without falling, was recorded. Each mouse was tested on a speed of 3-30 rpm and given three trials for any given day. The three trials were averaged to report a single value for an individual mouse, and then averages were calculated for all animals within a given treatment group. The first two trial days prior to immunization (day 0), served as practice trials.

[2] = Dissolution of the compound in the oil vehicle; assay type: physicochemical; settings: merely pipetting
Procedure: Reagents. AC-186 was dissolved in either Miglyol 812N liquid oil (Sasol North America) or sesame oil (Sigma Aldrich) as following concentration; 1.5 mg/mL for 3 mg/kg group, 5 mg/mL for 10 mg/kg group, and 15 mg/mL for 30 mg/kg group. Diarylpropionitrile (DPN, Tocris Biosciences) was dissolved in 10% molecular-grade ethanol and diluted with 90% of either Miglyol 812N liquid oil or sesame oil.
Three doses of the AC-186 compound were tested in C57BL6 female mice: low (3 mg/kg, every other day), medium (10 mg/kg, every other day), and high (30 mg/kg, every other day), each injected subcutaneously in a sesame oil vehicle. The ERβ ligand diarylpropionitrile (DPN) was tested as a positive control because DPN can partially ameliorate EAE and because the treatment effects in EAE experiments can vary based on the level of disease severity within an experiment. Direct comparisons between treatments were only made between treatment groups within a single EAE experiment and not between treatment groups of different EAE experiments. […] The difference in improvement between the 30 mg/kg AC-186 group and all other groups increased with time.

[3] = test system: cerebrum and cerebellum of female C57BL/6 mice with EAE; test: Cerebral and cerebellar neuropathology (gray and white matter) in EAE; assay type: in vivo, mouse; settings: 30 mg/kg every other day; vs Vehicle EAE
Procedure: (§1) Histological Preparation. Mice were exposed to a lethal dose of isoflurane and perfused transcardially with ice-cold 1×PBS for 8-15 min, followed by 10% formalin for 10-15 min. Spinal cords and brains were dissected and submerged in 10% formalin overnight at 4° C., followed by 30% sucrose in PBS for 24 h. Tissues were embedded in […] solution for cryostat sectioning then post-fixed overnight in 10% formalin and cryoprotected in 30% sucrose. The embedded tissues were stored in −80° C. after flash frozen in dry ice. 40 μm thick free-floating spinal cord cross-sections, and sagittal brain sections were obtained with a microtome b cryostat (model HM505E) at −20° C. Tissues were collected serially and stored in 1×PBS with 1% sodium azide in 4° C. until immunohistochemistry.
(§2) Immunofluorescence. Prior to histological staining, […] free-floating sections were thoroughly washed with 1×PBS to remove residual sodium azide. In the case of anti-MBP labeling, tissue sections were processed with an additional 1 hour incubation with 5% glacial acetic acid in 100-proof ethanol at room temperature (RT). After washing tissue sections were permeabilized with 0.3% TritonX-100 and 2% normal goat serum in 1×PBS for 30 minutes at room temperature and blocked with 10% normal goat serum in 1×PBS for 1 hour. Tissues were then incubated with primary antibodies overnight in 4° C. The following primary antibody (Ab) were used: Rat anti-MBP (Millipore) at 1:1000 dilutions, Rabbit anti-NF200 (Sigma Aldrich) at 1:750 dilutions, Rabbit anti-beta-APP (Life Technologies) at 1:200 dilutions, Mouse anti-NeuN at 1:1000 dilutions (Millipore), Rabbit anti-PSD95, and Rabbit anti-Synapsin 1 at 1:500 dilutions (Millipore), and Rat anti-CD45 at 1:1500 dilutions (Millipore). The next day tissues were washed and incubated with secondary antibodies conjugated to Cy5 or Cy3 (Millipore) for 1 hour at room temperature. A nuclear stain DAPI (2 ng/mL; Molecular Probes) was added 10 minutes prior to final washes after secondary Ab incubation. Sections were mounted on slides, allowed to semi-dry, and cover slipped in fluoromount G (Fisher Scientific). IgG-control experiments were performed for all primary Ab, and only non-immunoreactive tissues under these conditions were analyzed.
(§3) Chromagen Immunohistochemistry. […] Tissues were then incubated with primary antibodies overnight in 4° C. The following primary antibodies were used: Rat anti-CD3 at 1:2000 dilutions (BD Pharmingen), anti-Calbindin D28K at 1:1000 dilutions (Millipore), and Rabbit anti-Iba1 at 1:10000 dilutions (Wako Chemicals), were added for 2 hour at room temperature, and then placed in 4° C. overnight. Tissue sections then followed with secondary Ab labeling at 1:1000 dilutions (Vector labs) for 1 hour at room temperature and then with Avidin-Biotin Conjugation solution (Vector Labs) for 1 hour at room temperature. Tissue sections were treated with DAB peroxidase substrate (Vector labs) according to manufacturer instructions. IgG-control experiments were performed for all primary Ab, and only non-immunoreactive tissues under these conditions were analyzed.
(§4) Microscopy and Quantification. Three spinal cord cross-sections at the C5-12 level from each mouse (n=3-6) were captured under microscope at 10× magnification. To quantify demyelination in the spinal cord and cerebellum, white matter was manually delineated on the basis of DAPI staining, and MBP staining intensity was calculated and reported in the sampled area. Axonal damage was assessed by counting beta-APP^+ cells in a confocal 10× microscope in spinal cord. Axonal densities were calculated by counting the number of NF200^+ or NeuN^+ neuronal cells in a 10× confocal image in the sampled area of the captured tissue section. Cerebellar Purkinje (Calbindin^+) cells were manually counted using a brightfield 10× microscope over the entire sagittal cerebellum. […]

[4] = test system: spinal cords of C57BL/6 females with EAE; test: Spinal cord neuropathology (immunohistochemistry) in EAE; assay type: in vivo, mouse; settings: vs vehicle treated EAE
Procedure: as §1, §2, §3, §4

[5] = 10 mg/kg every other day in miglyol, EAE day 60
[6] = 30 mg/kg every other day in miglyol

With Oc1ccc(C2(c3ccccc3F)CCC(F)(F)CC2)cc1 [AC-186] as the compound, how does the “Rotarod Score” value ([1]; NOD F, AC186 10 mg/kg, miglylol vehicle) read?
Its value is “n.i”.

What about the “Rotarod Score” value ([1]; NOD F, AC186 30 mg/kg, miglylol vehicle) of the same compound?
Its value is “n.i”.

And the “Rotarod Score” value ([1]; NOD F, AC186 30 mg/kg, sesame vehicle)?
Its value is “n.i”.

What about the “Rotarod Score” value ([1]; NOD M, AC186 10 mg/kg, miglylol vehicle) of the same compound?
Its value is “n.i”.

What about the “Rotarod Score” value ([1]; NOD M, AC186 30 mg/kg, miglylol vehicle) of the same compound?
Its value is “n.i”.

And the Rotarod times ([1]; NOD males, AC-186 in miglyol, vs vehicle)?
Its Rotarod times is “no significant improvement in performance in the rotarod experiment”.

What about the “Time to dissolve in miglyol” value [2] of the same compound?
Its value is 30 s.

What about the “Axonal densities (NF200), cerebellar white matter” value [3] of the same compound?
The value was “a protective effect; also recorded: significantly more axon numbers”.

And the “Axonal densities (NF200), cerebral white matter (splenium of the corpus callosum)” value [3]?
Its value is “a protective effect; also recorded: significantly more axon numbers”.

What about the “Calbindin+ Purkinje cells, cerebellar gray matter” value [3] of the same compound?
Its value is “prevented; also recorded: a protective effect; also recorded: higher numbers of Calbindin^+ Purkinje cells”.

And the “Myelin staining intensity (MBP), cerebellar white matter” value [3]?
The value was “a protective effect; also recorded: higher MBP staining intensity”.

And the “Myelin staining intensity (MBP), cerebral white matter (splenium of the corpus callosum)” value [3]?
The value was “a protective effect; also recorded: a trend for higher MBP staining intensity”.

What about the “NeuN+ neuronal cells, cerebral cortex gray matter” value [3] of the same compound?
The value was “prevented; also recorded: a protective effect; also recorded: higher numbers of NeuN^+ cortical neurons”.

And the “PSD-95 staining, cerebellar gray matter (molecular layer)” value [3]?
Its value is “prevented; also recorded: a protective effect; also recorded: greater PSD-95 and Synapsin1 staining”.

And the “PSD-95 staining, cerebral cortex gray matter” value [3]?
The value was “prevented; also recorded: a protective effect; also recorded: greater PSD-95 staining”.

And the “Synapsin1 staining, cerebellar molecular layer” value [3]?
The value was “a protective effect; also recorded: greater PSD-95 and Synapsin1 staining”.

And the “Synapsin-1 staining, cerebral cortex gray matter” value [3]?
The value was “No effect was observed; also recorded: no significant differences in Synapsin-1 staining”.

What about the “Axonal densities / axon numbers (NF200), spinal cord” value [4, 5] of the same compound?
Its value is “Neuroprotective effects; also recorded: significantly more axon numbers”.

And the “Myelin staining intensity (MBP), spinal cord” value [4, 5]?
Its value is “a trend for somewhat higher MBP staining intensity”.

What about the “beta-APP expression (axonal damage), spinal cord” value [4, 5] of the same compound?
Its value is “Neuroprotective effects; also recorded: a trend of less beta-APP staining”.

What about the “CD3 stained cells (T lymphocytes), spinal cord” value ([4]; 10 mg/kg in miglyol) of the same compound?
The value was “neither AC-186 dose affected levels of CD3 staining; also recorded: no differences in the number of CD3 stained cells”.

And the “CD45 immunoreactivity (all immune cells), spinal cord” value ([4]; 10 mg/kg in miglyol)?
Its value is “reduced CD45 staining; also recorded: a reduction of CD45 expression”.

And the “Iba-1 globoid cells (macrophage like cells), spinal cord” value ([4]; 10 mg/kg in miglyol)?
Its value is “reduced Iba-1 globoid cell staining; also recorded: a significant reduction in the number of Iba-1 stained cells with globoid morphology”.

What about the “Axonal densities / axon numbers (NF200), spinal cord” value [4, 6] of the same compound?
Its value is “significantly preserved axon numbers; also recorded: sparing of axons and myelin; also recorded: significantly more axon numbers”.

And the “Myelin staining intensity (MBP), spinal cord” value [4, 6]?
Its value is “a trend for sparing myelin; also recorded: observed as significant; also recorded: a trend for somewhat higher MBP staining intensity”.

And the “beta-APP expression (axonal damage), spinal cord” value [4, 6]?
The value was “reduced axonal damage; also recorded: significantly less expression of beta-APP”.

What about the “CD3 stained cells (T lymphocytes), spinal cord” value ([4]; 30 mg/kg in miglyol) of the same compound?
The value was “neither AC-186 dose affected levels of CD3 staining; also recorded: no differences in the number of CD3 stained cells”.

What about the “CD45 immunoreactivity (all immune cells), spinal cord” value ([4]; 30 mg/kg in miglyol) of the same compound?
Its value is “reduced CD45 staining; also recorded: lowering CD45 and Iba-1; also recorded: a reduction of CD45 expression”.

What about the “Iba-1 globoid cells (macrophage like cells), spinal cord” value ([4]; 30 mg/kg in miglyol) of the same compound?
The value was “reduced Iba-1 globoid cell staining; also recorded: lowering CD45 and Iba-1; also recorded: a significant reduction in the number of Iba-1 stained cells with globoid morphology”.
